This passage reports IC50 results from PMC6667205, “Antitumor activity of novel pyrazole-based small molecular inhibitors of the STAT3 pathway in patient derived high grade glioma cells” (PLoS ONE, 2019).

The target in the test is T1, STAT3 (Homo sapiens, UniProt P40763).
T1 construct: GST-STAT3
Nature of the test: TR-FRET displacement of fluorescent phosphopeptide (5-FAM-G(pY)LPQTVC-NH2) from GST-STAT3. The test is classed as binding. On the technique in general: Time-resolved FRET reads energy transfer from a long-lived donor to a nearby acceptor.

T1 sequence (P40763 2-770): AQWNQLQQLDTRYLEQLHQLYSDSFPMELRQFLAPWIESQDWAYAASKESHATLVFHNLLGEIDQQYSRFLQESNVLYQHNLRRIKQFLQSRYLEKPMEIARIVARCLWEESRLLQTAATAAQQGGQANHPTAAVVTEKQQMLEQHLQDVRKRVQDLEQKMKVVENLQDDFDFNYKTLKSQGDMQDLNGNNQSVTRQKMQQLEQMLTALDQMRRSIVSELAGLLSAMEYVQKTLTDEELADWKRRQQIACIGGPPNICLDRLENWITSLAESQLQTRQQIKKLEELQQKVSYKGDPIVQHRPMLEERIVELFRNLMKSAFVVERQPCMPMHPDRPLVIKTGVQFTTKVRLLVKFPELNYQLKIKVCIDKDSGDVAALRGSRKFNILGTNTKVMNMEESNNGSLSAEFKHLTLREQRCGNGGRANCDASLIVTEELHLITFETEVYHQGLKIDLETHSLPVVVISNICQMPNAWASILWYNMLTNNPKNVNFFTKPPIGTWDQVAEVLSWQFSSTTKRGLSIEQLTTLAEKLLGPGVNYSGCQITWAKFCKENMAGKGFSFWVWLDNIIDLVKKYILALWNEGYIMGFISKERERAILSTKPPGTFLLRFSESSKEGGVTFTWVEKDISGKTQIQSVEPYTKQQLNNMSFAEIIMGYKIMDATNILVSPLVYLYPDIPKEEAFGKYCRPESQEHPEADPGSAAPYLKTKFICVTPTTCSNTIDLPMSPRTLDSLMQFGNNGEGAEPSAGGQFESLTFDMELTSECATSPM

On to S3I-1757, for which the half-inhibitory concentration (IC50) (commonly the concentration that inhibits the measured activity by half) turned out to be 62.1 ± 6.1 µM.
